Test system: not given
Assay: not given
Settings: not given

| melting point | SMILES |
| --- | --- |
| 193.5 to 196.4 °C | CCNC(=O)Nc1ccc2c(F)c(Oc3ccnc4cc(OCCCN5CCOCC5)c(OC)cc34)ccc2c1 [Example 111] |

Test system: Human peripheral blood lymphocytes
Assay: Human mixed lymphocyte reaction (huMLR)
Format: cell-based
Settings: 3H-thymidine incorporation, 6 days, read-out: IC50, inhibition of T-cell activation
Description: Human Mixed Lymphocyte Reaction (huMLR):
The purpose of this assay is to test the potency of T cell activation inhibitors in an in vitro model of allogeneic T cell stimulation. Human peripheral blood lymphocytes (hPBL; 2×10^5/well) are incubated with mitomycin C-treated B lymphoblastoid cells (JY cell line; 1×10^5/well) as allogeneic stimulators in the presence or absence of dilutions of potential inhibitor compound in 96-well round-bottom tissue culture plates. These cultures are incubated at 37° C. in 5% CO2 for 6 days total. The proliferative response of the hPBL is measured by ^3H-thymidine incorporation overnight between days 5 and 6 after initiation of culture. Cells are harvested onto glass fiber filters and ^3H-thymidine incorporation into DNA is analyzed by liquid scintillation counter.

| SMILES | IC50 |
| --- | --- |
| COc1cc2c(Oc3ccc4c(C(=O)Nc5cccc(C(F)(F)F)c5)cccc4c3)ccnc2cc1OCCCN1CCOCC1 [Example 314, 6-((6-(methoxy)-7-((3-(4-morpholinyl)propyl)oxy)-4-quinolinyl)oxy)-N-(3-(trifluoromethyl)phenyl)-1-naphthalenecarboxamide] | < 100 nM |
| COc1ccc(C(C)(C)C)cc1NC(=O)c1cccc2cc(Oc3ccnc4cc(OCCCN5CCOCC5)c(OC)cc34)ccc12 [Example 342, N-(5-(1,1-dimethylethyl)-2-(methoxy)phenyl)-6-((6-(methoxy)-7-((3-(4-morpholinyl)propyl)oxy)-4-quinolinyl)oxy)-1-naphthalenecarboxamide] | < 100 nM |
| COc1cc2c(Oc3ccc4c(C(=O)Nc5cc(C(C)(C)C)on5)cccc4c3F)ccnc2cc1OCCCN1CCOCC1 [Example 611, N-(5-(1,1-dimethylethyl)-3-isoxazolyl)-5-fluoro-6-((6-(methoxy)-7-((3-(4-morpholinyl)propyl)oxy)-4-quinolinyl)oxy)-1-naphthalenecarboxamide] | < 100 nM |
| COc1cc2c(Oc3ccc4c(C(=O)Nc5cc(C(C)(C)C)on5)cccc4c3)ncnc2cc1OCCCN1CCCCC1 [Example 732, N-(5-(1,1-dimethylethyl)-3-isoxazolyl)-6-((6-(methoxy)-7-((3-(1-piperidinyl)propyl)oxy)-4-quinazolinyl)oxy)-1-naphthalenecarboxamide] | < 100 nM |
| COc1cc2c(Oc3ccc4c(C(=O)Nc5ccc(Cl)cc5)cccc4c3F)ccnc2cc1OCCCN1CCOCC1 [Example 816] | < 100 nM |

Further lines, results first:

| IC50 | SMILES |
| --- | --- |
| < 100 nM | COc1cc2nccc(Oc3ccc4c(C(=O)Nc5ncc(C)s5)cccc4c3)c2cc1OC [Example 289, 6-((6,7-bis(methoxy)-4-quinolinyl)oxy)-N-(5-methyl-1,3-thiazol-2-yl)-1-naphthalenecarboxamide] |
| < 100 nM | COc1cc2c(Oc3ccc4c(C(=O)Nc5cc(C(C)(C)C)[nH]n5)cccc4c3)ccnc2cc1OCCCN1CCOCC1 [Example 325, N-(5-(1,1-dimethylethyl)-1H-pyrazol-3-yl)-6-((6-(methoxy)-7-((3-(4-morpholinyl)propyl)oxy)-4-quinolinyl)oxy)-1-naphthalenecarboxamide] |
| < 100 nM | COc1cc2nccc(Oc3ccc4c(C(=O)Nc5cc(C(C)(C)C)on5)cccc4c3F)c2cc1OC [Example 467, 6-((6,7-bis(methoxy)-4-quinolinyl)oxy)-N-(5-(1,1-dimethylethyl)-3-isoxazolyl)-5-fluoro-1-naphthalenecarboxamide] |
| < 100 nM | COc1cc2nccc(Oc3ccc4c(C(=O)Nc5cc(C(C)(C)C)on5)ccc(C)c4c3)c2cc1OC [Example 541, 6-((6,7-bis(methoxy)-4-quinolinyl)oxy)-N-(5-(1,1-dimethylethyl)-3-isoxazolyl)-4-methyl-1-naphthalenecarboxamide] |
| < 100 nM | COc1cc2nccc(Oc3ccc4c(C(=O)Nc5cc(C(C)(C)C)on5)cccc4c3)c2cc1OC [Example 583, 6-((6,7-bis(methoxy)-4-quinolinyl)oxy)-N-(5-(1,1-dimethylethyl)-3-isoxazolyl)-1-naphthalenecarboxamide] |
| < 100 nM | COc1cc2nccc(Oc3ccc4c(C(=O)Nc5cc(C(C)(C)C)[nH]n5)cccc4c3)c2cc1OC [Example 589, 6-((6,7-bis(methoxy)-4-quinolinyl)oxy)-N-(5-(1,1-dimethylethyl)-1H-pyrazol-3-yl)-1-naphthalenecarboxamide] |
| < 100 nM | COc1cc2nccc(Oc3ccc4c(C(=O)Nc5cc(C(F)(F)F)ccn5)cccc4c3)c2cc1OC [Example 657, 6-((6,7-bis(methoxy)-4-quinolinyl)oxy)-N-(4-(trifluoromethyl)-2-pyridinyl)-1-naphthalenecarboxamide] |

Test system: Human Umbilical Vein Endothelial cells
Assay: HUVEC proliferation assay, VEGF-stimulated
Format: cell-based
Settings: 72 h, read-out: inhibition of VEGF-stimulated HUVEC proliferation
Description: HUVEC Proliferation Assay
Human Umbilical Vein Endothelial cells are purchased from Clonetics, Inc., as cryopreserved cells harvested from a pool of donors. These cells, at passage 1, are thawed and expanded in EBM-2 complete medium, until passage 2 or 3. The cells are trypsinized, washed in DMEM+10% FBS+antibiotics, and spun at 1000 rpm for 10 min. Prior to centrifugation of the cells, a small amount is collected for a cell count. After centrifugation, the medium is discarded, and the cells are resuspended in the appropriate volume of DMEM+10% FBS+antibiotics to achieve a concentration of 3×10^5 cells/mL. Another cell count is performed to confirm the cell concentration. The cells are diluted to 3×10^4 cells/mL in DMEM+10% FBS+antibiotics, and 100 μL of cells are added to a 96-well plate. The cells are incubated at 37° C. for 22 h.
Prior to the completion of the incubation period, compound dilutions are prepared. Five-point, five-fold serial dilutions are prepared in DMSO, at concentrations 400-fold greater than the final concentrations desired. 2.5 μL of each compound dilution are diluted further in a total of 1 mL DMEM+10% FBS+antibiotics (400× dilution). Medium containing 0.25% DMSO is also prepared for the 0 μM compound sample. At the 22 h timepoint, the medium is removed from the cells, and 100 μL of each compound dilution is added. The cells are incubated at 37° C. for 2-3 h.
During the compound pre-incubation period, the growth factors are diluted to the appropriate concentrations. Solutions of DMEM+10% FBS+antibiotics, containing either VEGF or bFGF at the following concentrations: 50, 10, 2, 0.4, 0.08, and 0 ng/mL are prepared. For the compound-treated cells, solutions of VEGF at 550 ng/mL or bFGF at 220 ng/mL for 50 ng/mL or 20 ng/mL final concentrations, respectively, are prepared since 10 μL of each will be added to the cells (110 μL final volume). At the appropriate time after adding the compounds, the growth factors are added. VEGF is added to one set of plates, while bFGF is added to another set of plates. For the growth factor control curves, the media on wells B4-G6 of plates 1 and 2 are replaced with media containing VEGF or bFGF at the varying concentrations (50-0 ng/mL). The cells are incubated at 37° C. for an additional 72 h.
At the completion of the 72 h incubation period, the medium is removed, and the cells are washed twice with PBS. After the second wash with PBS, the plates are tapped gently to remove excess PBS, and the cells are placed at −70° C. for at least 30 min. The cells are thawed and analyzed using the CyQuant fluorescent dye (Molecular Probes C-7026), following the manufacturer's recommendations. The plates are read on a Victor/Wallac 1420 workstation at 485 nm/530 nm (excitation/emission). Raw data are collected and analyzed using a 4-parameter fit equation in XLFit. IC50 values are then determined.

| SMILES | IC50 |
| --- | --- |
| COc1cc2nccc(Oc3ccc4c(C(=O)Nc5ccc(Cl)cc5)cccc4c3)c2cc1OC [Example 114, 6-(6,7-Dimethoxy-quinolin-4-yloxy)-naphthalene-1-carboxylic acid(4-chloro-phenyl)-amide] | < 500 nM |

Same assay, conditions: VEGF-stimulated, 72 h, read-out: inhibition of VEGF-stimulated HUVEC proliferation

| SMILES | IC50 |
| --- | --- |
| COc1cc2nccc(Oc3ccc4c(C(=O)Nc5ccc(C(F)(F)F)cc5)cccc4c3)c2cc1OC [Example 115, 6-(6,7-dimethoxy-quinolin-4-yloxy)-naphthalene-1-carboxylix acid (4-trifluoromethyl-phenyl)-amide] | < 500 nM |
| COc1cc2nccc(Oc3ccc4c(C(=O)Nc5cccc(C(F)(F)F)c5)cccc4c3)c2cc1OC [Example 116, 6-(6,7-dimethoxy-quinolin-4-yloxy)-naphthalene-1-carboxylix acid (3-trifluoromethyl-phenyl)-amide] | < 500 nM |
| COc1cc2nccc(Oc3ccc4c(C(=O)Nc5ccc(Cl)c(C(F)(F)F)c5)cccc4c3)c2cc1OC [Example 117, 6-(6,7-dimethoxy-quinolin-4-yloxy)-naphthalene-1-carboxylix acid (4-chloro-3-trifluoromethyl-phenyl)-amide] | < 500 nM |
| COc1cc2nccc(Oc3ccc4c(NC(=O)c5ccccc5F)cccc4c3)c2cc1OC [Example 120, N-[6-(6,7-dimethoxy-quinolin-4-yloxy)-naphthalen-1-yl]-2-fluoro-benzamide] | < 500 nM |
| COc1cc2nccc(Oc3ccc4c(NC(=O)c5ccc(Cl)cc5)cccc4c3)c2cc1OC [Example 121, N-[6-(6,7-Dimethoxy-quinolin-4-yloxy)-naphthalen-1-yl]-4-chloro-benzamide] | < 500 nM |

— US7435823B2, “Compounds and methods of use” (Amgen Inc., priority 2004, dated 2008)
